Measurements published in patent US8188148B2, “Substituted 1,3-diphenylpropane derivatives, preparations and uses thereof” (Genfit, priority 2006, dated 2012).

How the values were obtained:
[1] = tested on: PPARs target genes (PDK4, ApoCIII); assay: Hepatic gene expression by quantitative RT-PCR in C57BI6 mouse; type: in vivo; settings: C57BI6 mouse, 3, 10, and 30 mpk, 14 days, normalized to 36B4
Method: The effectiveness of the compounds according to the invention is also evaluated by measuring, in hepatic tissue, the expression of the genes involved in lipid metabolism. Each level of gene expression is normalized regarding the expression level of the reference gene 36B4. The induction factor is then calculated. The higher the induction factor is, the more the compound promotes hepatic gene expression. […]
Total RNA was extracted from liver fragments by using a NucleoSpin® 96 RNA kit (Macherey Nagel, Hoerdt, France) according to the manufacturer's instructions. 1 μg of total RNA (quantified by spectrophotometry) was then reverse-transcripted into cDNA by means of a 1 hour reaction at 37° C. in a total volume of 20 μl containing a 1× buffer (Sigma), 1.5 mM of DTT, 0.18 mM of dNTPs (Promega), 200 ng of pdN6 (Amersham), 30 U of RNase inhibitor (Sigma), and 1 μl of MMLV-RT (Sigma).
The PCR quantitative experiments were carried out using the MyiQ Single-Color Real-Time PCR Detection System (Biorad, Marnes-la-Coquette, France) and were performed using the iQ SYBR Green Supermix kit according to the provider's recommendations, in 96-well plates in 5 μl of a diluted reverse transcription solution and at a hybridization temperature of 55° C. […]
The amount of fluorescence emitted is directly proportional to the amount of cDNA present at the beginning of the reaction and amplified during the PCR. […]

[2] = tested on: PPARs target genes (PDK4, UCP2); assay: Hepatic and skeletal muscle gene expression by quantitative RT-PCR in db/db mouse; type: in vivo; settings: 50 mpk, 28 days
Method: The effectiveness of the compounds according to the invention is also evaluated by measuring, in the hepatic and muscular (skeletal) tissues, the expression of genes involved in lipid and/or glucid metabolism and in energy dissipation. Each level of gene expression is normalized regarding the expression level of the reference gene 36B4 in the hepatic tissue, or regarding the expression level of the reference gene 18S in the gastrocnemius skeletal muscle. The induction factor, i.e. the ratio between the relative signal (induced by the compound according to the invention) and the average of the relative values obtained with the control group, is then calculated. The higher the induction factor is, the more the greater the compound promotes gene expression. The final result is represented as the average of the induction values obtained with each experimental group. • FIG. 4-8: Expression of PDK4 in the hepatic tissue of the db/db mouse, after 28 days of treatment with compound 1 and compound 3, administered at 50 mpk • FIG. 4-9: Expression of UCP2 (uncoupling protein 2) in the skeletal muscle tissue of the db/db mouse, after 28 days of treatment with compound 1 and compound 3, administered at 50 mpk
Total RNA was extracted from liver fragments by using a NucleoSpin® 96 RNA kit (Macherey Nagel, Hoerdt, France) according to the manufacturer's instructions.
Total RNA was extracted from gastrocnemius skeletal muscle fragments by using a RNeasy® Fibrous Tissue kit (Qiagen) according to the manufacturer's instructions.
1 μg of total RNA (quantified by spectrophotometry) was then reverse-transcripted into complementary DNA by means of a 1 hour reaction at 37° C. in a total volume of 20 μl containing a 1× buffer (Sigma), 1.5 mM of DTT, 0.18 mM of dNTPs (Promega), 200 ng of pdN6 (Amersham), 30 U of RNase inhibitor (Sigma), and 1 μl of MMLV-RT (Sigma).
The PCR quantitative experiments were carried out using the MyiQ Single-Color Real-Time PCR Detection System (Biorad, Marnes-la-Coquette, France) and were performed using the iQ SYBR Green Supermix kit according to the provider's recommendations, in 96-well plates in 5 μl of a diluted reverse-transcription solution at a hybridization temperature of 55° C. The specific primer pairs of the genes being studied were used:
The amount of fluorescence emitted is directly proportional to the amount of complementary DNA present at the beginning of the reaction and amplified during the PCR. For each target studied, a range of solutions is performed with successive dilutions of mixtures of a few microliters of different reverse-transcription solutions. The relative levels of expression of each target are thus determined by using efficiency curves obtained with the points relative to the range of PCR solutions. […]

SMILES: Cc1cc(CCC(=O)c2ccc(OC(F)(F)F)cc2)cc(C)c1OC(C)(C)C(=O)O [Compound 1, 2-[2,6-dimethyl-4-[3-[4-(trifluoromethyloxy)phenyl]-3-oxo-propyl]phenoxy]-2-methyl-propanoic acid]
- hepatic expression of the gene coding for ApoCIII [1]: reduction
- hepatic expression of the gene coding for PDK4 [1]: significant increase
- expression of the gene coding for UCP2 in the skeletal muscle ([2]; gastrocnemius skeletal muscle): reduction
- hepatic expression of the gene coding for PDK4 ([2]; hepatic tissue): significant increase
